Drawing on PubChem BioAssay (NCI), this text covers TGI for 13 molecules.

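Cells were grown in 96-well plates and exposed to each compound for 48 hours at five concentrations; endpoints were interpolated linearly between bracketing concentrations, or set to the highest concentration if not reached. TGI: concentration producing complete growth inhibition.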 Where a SMILES comes first, the peptide text is derived from it. The star is where a group is joined. Boc = CC(C)(C)OC(=O)*

Test systems include SR leukemia; OVCAR-4 ovarian; A549 NSCLC; NCI-H226 lung; MCF7 breast; UACC-257 melanoma; HCC-2998 colon; DU-145 prostate; M14 melanoma; SF-539 CNS.
What all share (assay): growth of human tumour cells (NCI), 48 h

In the case of `C1=CC2=CC=CC3c4nc5ccc6ccccc6c5nc4C(=C1)C23` (stereo not drawn), the TGI with SR leukemia, with OVCAR-4 ovarian, with A549 NSCLC, in the assay with NCI-H226 lung, with MCF7 breast and in the assay on UACC-257 melanoma was > 100 µM each time. Besides, the TGI in the assay with HCC-2998 colon, with DU-145 prostate, in the assay on M14 melanoma and in the assay on SF-539 CNS was > 100 µM each time.

For the molecule `COc1ccc2nc3cc(Cl)ccc3c(NCCCNCCCNc3c4ccc(Cl)cc4nc4ccc(OC)cc34)c2c1`, the TGI was 2.73 µM in the assay with SR leukemia; 0.165 µM in the assay with A549 NSCLC; 0.177 µM with NCI-H226 lung; 0.157 µM with MCF7 breast; 1.76 µM in the assay on UACC-257 melanoma; 0.147 µM with HCC-2998 colon. The TGI amounted to 0.156 µM in the assay with DU-145 prostate, 0.157 µM in the assay on M14 melanoma and 0.192 µM with SF-539 CNS.

Take `O=C(CCCN1CCC2(CC1)CC(=O)N(N1CCOCC1)C2=O)c1ccccc1`: the TGI in the assay on SR leukemia, with A549 NSCLC, with NCI-H226 lung, with MCF7 breast, with UACC-257 melanoma and in the assay on HCC-2998 colon was > 100 µM throughout. The TGI with DU-145 prostate, in the assay on M14 melanoma and in the assay with SF-539 CNS was > 100 µM throughout.

In the case of `CCCn1c(CN(Cc2nc3ccccc3n2CCC)Cc2nc3ccccc3n2CCC)nc2ccccc21`, the TGI in the assay with SR leukemia was 11.8 µM; in the assay on OVCAR-4 ovarian, 26.1 µM; with A549 NSCLC, > 64.4 µM; in the assay on NCI-H226 lung, 27.3 µM; with MCF7 breast it was > 29.2 µM; with UACC-257 melanoma, > 42.5 µM. Moreover, the TGI in the assay with HCC-2998 colon was 30 µM; in the assay with DU-145 prostate it was > 88.5 µM; with M14 melanoma, 42 µM; with SF-539 CNS it was > 50.9 µM.

As for `CC(C)(C)OC(=O)NCC(=O)NCC(=O)NCC(=O)NCC(=O)O` (Boc-GGGG-OH), the TGI in the assay on SR leukemia, with OVCAR-4 ovarian, with A549 NSCLC, in the assay with MCF7 breast, in the assay with UACC-257 melanoma and with HCC-2998 colon was > 100 µM in each case. Moreover, the TGI with DU-145 prostate, with M14 melanoma and with SF-539 CNS was > 100 µM throughout.

As to `COc1nc(C#CCC(C)O)nc(OC)n1` (stereo not drawn), the TGI with SR leukemia is > 100 µM; with OVCAR-4 ovarian, 36.2 µM; with A549 NSCLC, 52.9 µM; in the assay on MCF7 breast, 33.5 µM; with UACC-257 melanoma, > 100 µM; in the assay with DU-145 prostate, 52.8 µM. Moreover, the TGI in the assay on M14 melanoma amounted to 39.6 µM; with SF-539 CNS, 59.2 µM.

As to `O=P(c1ccccc1)(c1ccccc1)N1O[C@@H](c2ccccc2)C=C[C@H]1c1ccccc1`, the TGI stood at 50.4 µM in the assay on SR leukemia; 10.6 µM in the assay with OVCAR-4 ovarian; 24 µM in the assay on A549 NSCLC; 29.4 µM with NCI-H226 lung; 12.6 µM in the assay with MCF7 breast; 26.3 µM in the assay on UACC-257 melanoma. In addition, the TGI was determined as 27.5 µM with HCC-2998 colon, 26.3 µM in the assay with DU-145 prostate, 23.9 µM in the assay with M14 melanoma and 33 µM with SF-539 CNS.

Turning to `CC1(C)N=C(C(N)=O)c2ncn(CCCO)c2N1`, the TGI in the assay with SR leukemia, in the assay with OVCAR-4 ovarian, with A549 NSCLC, in the assay on NCI-H226 lung, in the assay on MCF7 breast and with UACC-257 melanoma was > 100 µM in each case. The TGI in the assay with HCC-2998 colon, in the assay with DU-145 prostate, in the assay with M14 melanoma and with SF-539 CNS was > 100 µM each time.

Consider `C=C[C@@H]1C(CO)=CCC2[C@H]1CCC1C(C)(C)C(=O)CC[C@]21C` (stereo partly drawn), for which the TGI in the assay with SR leukemia, in the assay on OVCAR-4 ovarian, with A549 NSCLC, in the assay with NCI-H226 lung, with MCF7 breast and in the assay with UACC-257 melanoma was > 100 µM throughout. Also, the TGI in the assay with HCC-2998 colon, in the assay with DU-145 prostate, in the assay with M14 melanoma and with SF-539 CNS was > 100 µM in each case.

In the case of `Cc1nn(C(=O)Cc2ccccc2)c2c1C(c1ccc(O)cc1)SC(N)=N2` (stereo not drawn), the TGI in the assay on SR leukemia, with A549 NSCLC, in the assay with NCI-H226 lung, in the assay on MCF7 breast, in the assay on UACC-257 melanoma and in the assay with HCC-2998 colon was > 100 µM in each case. Further, the TGI in the assay on DU-145 prostate, with M14 melanoma and with SF-539 CNS was > 100 µM each time.

For the molecule `Brc1cccc(Nc2nc(-c3cccs3)nc3ccc(Br)cc23)c1`, the TGI in the assay with SR leukemia was > 100 µM; in the assay with OVCAR-4 ovarian, > 100 µM; with A549 NSCLC, > 100 µM; in the assay with NCI-H226 lung it was > 100 µM; with MCF7 breast, > 100 µM; with UACC-257 melanoma it was 74 µM. Also, the TGI in the assay with HCC-2998 colon is 42.1 µM; in the assay with DU-145 prostate it was > 100 µM; in the assay with M14 melanoma, 71.3 µM; in the assay on SF-539 CNS it was > 100 µM.

Take `O=c1cc(N=P(c2ccccc2)(c2ccccc2)c2ccccc2)n(-c2ccccc2)c(=O)n1-c1ccccc1`: the TGI was 24.6 µM with SR leukemia; 45.9 µM in the assay on OVCAR-4 ovarian; 24.6 µM with A549 NSCLC; 22.2 µM with NCI-H226 lung; 34.3 µM in the assay on MCF7 breast; > 100 µM in the assay with UACC-257 melanoma. For the same molecule, the TGI in the assay with HCC-2998 colon is 69.7 µM; in the assay with DU-145 prostate, > 100 µM; in the assay with M14 melanoma, > 100 µM; with SF-539 CNS, 17.7 µM.

With `CO[C@]12CC(=O)C3(C(C[C@H]4CC5CC=C6C[C@@H](OC(C)=O)CC[C@]6(OC(C)=O)C5C[C@@]43C)C1)C1C[C@H]3[C@@H]4CC=C5C[C@@H](OC(C)=O)CC[C@]5(OC(C)=O)[C@H]4CC[C@]3(C)C12` (stereo partly drawn), the TGI in the assay with SR leukemia was > 100 µM; in the assay with OVCAR-4 ovarian it was 24.4 µM; with A549 NSCLC, > 100 µM; in the assay on MCF7 breast it was > 100 µM; in the assay with UACC-257 melanoma, > 100 µM; in the assay on HCC-2998 colon, 41.6 µM. For the same molecule, the values for the TGI in the assay on DU-145 prostate, with M14 melanoma and in the assay with SF-539 CNS were 41.4 µM, 47.2 µM and 37.2 µM, respectively.
